Assay [1] has as its system Aβ40 in conditioned medium of cells stably expressing Amyloid Precursor Protein (APP). Briefly: In vitro BACE cell-based assay (Aβ40 in conditioned medium, sandwich ELISA). As to the method:
In Vitro BACE Cell-Based Assay
The cell-based assay measures inhibition or reduction of Aβ40 in conditioned medium of test compound treated cells expressing amyloid precursor protein.
Cells stably expressing Amyloid Precursor Protein (APP) were plated at a density of 40K cells/well in 96 well plates (Costar). The cells were cultivated for 24 hours at 37° C. and 5% CO2 in DMEM supplemented with 10% FBS. The test compounds were then added to cells in 10-point dose response concentrations with the starting concentration being either 100 μM or 10 μM. The compounds were diluted from stock solutions in DMSO and the final DMSO concentration of the test compounds on cells was 0.1%. […] The IC50 of the compound was calculated from the percent of control or percent inhibition of Aβ 40 as a function of the concentration of the test compound.
The sandwich ELISA to detect Aβ 40 was performed in 96 well microtiter plates, which were pre-treated with goat anti-rabbit IgG (Pierce). The capture and detecting antibody pair that were used to detect Aβ 40 from cell supernatants were affinity purified pAb40 (Biosource) and biotinylated 6E10 (Signet Labs Inc.), respectively. The optimal concentration for the pAb40 antibody was 3 μg/ml in Superblock/TBS (Pierce) that was supplemented with 0.05% Tween 20 (Sigma).
Cellular supernatants were incubated with the capture antibody for 3 h at 4° C., followed by 3 wash steps in TBS-tween (0.05%). The detecting antibody incubation was for 2 h at 4° C., again followed by the wash steps as described previously. The final readout of the ELISA is Time-Resolved Fluorescence (counts per minute) using Delfia reagents Streptavidin-Europium and Enhancement solutions (Perkin Elmer) and the Victor 2 multilabel counter (Perkin Elmer).

In assay [2] the target is Beta Secretase enzyme (BACE) (Homo sapiens, UniProt P56817). Kind of assay: In vitro enzymatic BACE FRET (fluorescence resonance energy transfer) assay. Type of assay: biochemical. The method, then:
In Vitro Enzymatic Bace Fret (Fluorescence Resonance Energy Transfer) Assay (Enzyme Assay Data in the Example Table I)
The assay buffer used in this screen is 0.05 M acetate, pH 4.2, 10% DMSO final, 100 uM genapol (which is a nonionic detergent, below its Critical Micelle Concentration). […] This assay is effectively started by the addition of FRET substrate (50 nM) and the combination is incubated for one hour. The FRET assay is terminated with by addition of Tris buffer, which raises the pH to neutrality, and the fluorescence is determined. The FRET substrate is a peptide with commercially available fluorophore and quencher, on opposite sides of the BACE cleavage site.

[3] abbreviates: Homo sapiens, HEK293, average IC50, read-out: HEK cell assay.
Where [4] appears, read: Homo sapiens, HEK293, read-out: HEK cell assay (uM).
[5] abbreviates: average IC50, read-out: HEK cell assay.
[6] abbreviates: Homo sapiens, HEK293, average IC50, HEK cells, read-out: HEK cell assay.
Where [7] appears, read: average IC50, enzyme assay, read-out: BACE 1 FRET assay.

Read-outs that look alike come from different tables or passages of the source.

Chain of Beta Secretase enzyme (BACE) (P56817 46-501, species assumed): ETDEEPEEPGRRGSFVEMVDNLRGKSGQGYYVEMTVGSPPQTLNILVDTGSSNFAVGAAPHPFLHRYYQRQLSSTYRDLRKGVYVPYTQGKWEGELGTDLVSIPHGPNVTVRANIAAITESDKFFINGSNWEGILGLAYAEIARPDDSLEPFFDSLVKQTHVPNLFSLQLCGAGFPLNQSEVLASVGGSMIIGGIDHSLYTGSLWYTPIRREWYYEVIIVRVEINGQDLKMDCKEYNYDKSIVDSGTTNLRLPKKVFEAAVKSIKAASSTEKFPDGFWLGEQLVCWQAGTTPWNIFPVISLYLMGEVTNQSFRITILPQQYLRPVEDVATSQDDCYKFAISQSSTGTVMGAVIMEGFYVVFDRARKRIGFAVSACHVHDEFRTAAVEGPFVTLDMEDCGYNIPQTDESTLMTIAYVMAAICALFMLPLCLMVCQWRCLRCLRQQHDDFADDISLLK

In the case of “2′-amino-9-fluoro-7-((3-methyl-3-oxetanyl)ethynyl)spiro[chromeno[2,3-c]pyridine-5,4′-[1,3]oxazol]-3-yl)benzonitrile [Example 694]”, the IC50 in assay [1] (average IC50, HEK cells, read-out: HEK cell assay) was 1.09 µM.

For `NC1=N[C@@]2(CO1)c1cc(-c3cccnc3F)ccc1Oc1c(F)cc(C3=CCCOC3)cc12` [Example 129, (S)-2′-(5,6-dihydro-2H-pyran-3-yl)-4′-fluoro-7′-(2-fluoropyridin-3-yl)-5H-spiro[oxazole-4,9′-xanthen]-2-amine], in assay [1] (setting [3]), the IC50 came out at 0.0032 µM. Take `NC1=N[C@@]2(CO1)c1cc(-c3cccnc3F)ccc1Oc1cnc(N3CC[C@H](F)C3)cc12` [Example 133, (S)-7-(2-fluoropyridin-3-yl)-3-((S)-3-fluoropyrrolidin-1-yl)-5′H-spiro[chromeno[2,3-c]pyridine-5,4′-oxazol]-2′-amine]: the IC50 in assay [1] (setting [4]) is 0.0096 µM. For the compound `NC1=N[C@@]2(CO1)c1cc(-c3cccnc3F)ccc1Oc1c(F)cc(N3CCOCC3)cc12` [Example 139, (S)-4′-fluoro-7′-(2-fluoropyridin-3-yl)-2′-morpholino-5H-spiro[oxazole-4,9′-xanthen]-2-amine], the IC50 in assay [1] (setting [3]) is 0.0052 µM. The same measure, in the same setting: the same measure for `NC1=N[C@@]2(CO1)c1cc(-c3cccnc3F)ccc1Oc1c(F)cc(-c3ccccn3)cc12` [Example 196, (4S)-4′-fluoro-7′-(2-fluoro-3-pyridinyl)-2′-(2-pyridinyl)spiro[1,3-oxazole-4,9′-xanthen]-2-amine]: 0.0097 µM; for `NC1=N[C@@]2(CO1)c1cc(-c3cccnc3F)ccc1Oc1c(F)cc(N3CC[C@@H](F)C3)cc12` [Example 279, (4S)-4′-fluoro-7′-(2-fluoro-3-pyridinyl)-2′-((3R)-3-fluoro-1-pyrrolidinyl)spiro[1,3-oxazole-4,9′-xanthen]-2-amine]: 0.0085 µM; for `NC1=N[C@@]2(CO1)c1cc(-c3cccnc3F)ccc1Oc1c(F)cc(N3CC[C@H](F)C3)cc12` [Example 280, (S)-4′-fluoro-7′-(2-fluoropyridin-3-yl)-2′-((S)-3-fluoropyrrolidin-1-yl)-5H-spiro[oxazole-4,9′-xanthen]-2-amine]: 0.0069 µM. Take `CC(C)(C)C#Cc1cnc2c(c1)[C@]1(COC(N)=N1)c1cc(-c3cncnc3)c(F)cc1O2` [Example 340, (5S)-3-(3,3-dimethyl-1-butyn-1-yl)-8-fluoro-7-(5-pyrimidinyl)spiro[chromeno[2,3-b]pyridine-5,4′-[1,3]oxazol]-2′-amine]: the IC50 in assay [1] (setting [5]) came to 0.0843 µM. On to `NC1=N[C@@]2(CO1)c1cc(-c3cccnc3F)ccc1Oc1cnc(N3CC[C@@H](F)C3)cc12` [Example 416, (5S)-7-(2-fluoro-3-pyridinyl)-3-((3R)-3-fluoro-1-pyrrolidinyl)spiro[chromeno[2,3-c]pyridine-5,4′-[1,3]oxazol]-2′-amine], for which the IC50 in assay [1] (setting [4]) amounted to 0.0049 µM. `NC1=N[C@@]2(CO1)c1cc(-c3cccnc3F)ccc1Oc1ncc(C3=CCOCC3)cc12` [Example 460, (5S)-3-(3,6-dihydro-2H-pyran-4-yl)-7-(2-fluoro-3-pyridinyl)spiro[chromeno[2,3-b]pyridine-5,4′-[1,3]oxazol]-2′-amine]: the IC50 in assay [1] (setting [6]) is 0.0065 µM. On the same count and under the same terms, the same measure for `NC1=N[C@@]2(CS1)c1cc(Br)ccc1Oc1cnc(Cl)cc12` [Example 588, (5S)-7-bromo-3-chlorospiro[chromeno[2,3-c]pyridine-5,4′-[1,3]thiazol]-2′-amine]: 10 µM; for `NC1=N[C@@]2(CS1)c1cc(-c3cccnc3F)ccc1Oc1cnc(-c3ccnc(F)c3)cc12` [Example 589, (5S)-7-(2-fluoro-3-pyridinyl)-3-(2-fluoro-4-pyridinyl)spiro[chromeno[2,3-c]pyridine-5,4′-[1,3]thiazol]-2′-amine]: 0.039 µM. `NC1=N[C@]2(CS1)c1cc(-c3cccc(C4=CCOCC4)c3)ccc1Oc1cnc(C3=CCOCC3)cc12` [Example 596, (5R)-3-(3,6-dihydro-2H-pyran-4-yl)-7-(3-(3,6-dihydro-2H-pyran-4-yl)phenyl)spiro[chromeno[2,3-c]pyridine-5,4′-[1,3]thiazol]-2′-amine]: in assay [2] (setting [7]), the IC50 was 0.0478 µM.

As for `NC1=N[C@@]2(CS1)c1cc(Br)ccc1Oc1c2cc(Cl)nc1F` [Example 597, (5S)-7-bromo-3-chloro-1-fluorospiro[chromeno[2,3-c]pyridine-5,4′-[1,3]thiazol]-2′-amine], the IC50 in assay [2] (setting [7]) is 4.5 µM. Consider `NC1=N[C@@]2(CO1)c1cc(-c3cccc(F)n3)ccc1Oc1cnc(-c3ccnc(F)c3)cc12` [Example 632, (5S)-3-(2-fluoro-4-pyridinyl)-7-(6-fluoro-2-pyridinyl)spiro[chromeno[2,3-c]pyridine-5,4′-[1,3]oxazol]-2′-amine], for which the IC50 in assay [1] (setting [6]) is 0.332 µM.

With `NC1=N[C@@]2(CO1)c1cc(-c3cccnc3F)ccc1Oc1c2cc(C2=COCCC2)nc1F` [Example 807, (5S)-3-(3,4-dihydro-2H-pyran-5-yl)-1-fluoro-7-(2-fluoro-3-pyridinyl)spiro[chromeno[2,3-c]pyridine-5,4′-[1,3]oxazol]-2′-amine], the IC50 in assay [1] (setting [3]) was 3.06 µM. On the same count and under the same terms, the value for `NC1=N[C@@]2(CO1)c1cc(-c3cncc(C#CCO)c3)ccc1Oc1cnc(C3=CCOCC3)cc12` [Example 826, 3-(5-((5S)-2′-amino-3-(3,6-dihydro-2H-pyran-4-yl)spiro[chromeno[2,3-c]pyridine-5,4′-[1,3]oxazol]-7-yl)-3-pyridinyl)-2-propyn-1-ol] was 0.002 µM. In the case of `NC1=N[C@@]2(CO1)c1cc(-c3cccnc3F)ccc1Oc1cnc(N3CCOCC3)cc12` [Example 890, (5S)-7-(2-fluoro-3-pyridinyl)-3-(4-morpholinyl)spiro[chromeno[2,3-c]pyridine-5,4′-[1,3]oxazol]-2′-amine], in assay [2] (BACE 1 FRET assay (uM)), the IC50 amounted to 0.0013 µM. As to `NC1=N[C@]2(CO1)c1cc(-c3cccnc3F)ccc1Oc1c2cc(C2=CCCOC2)nc1F` [Example 908, (5R)-3-(5,6-dihydro-2H-pyran-3-yl)-1-fluoro-7-(2-fluoro-3-pyridinyl)spiro[chromeno[2,3-c]pyridine-5,4′-[1,3]oxazol]-2′-amine], in assay [1] (setting [6]), the IC50 was found to be 0.609 µM. In the case of `NC1=N[C@@]2(CS1)c1cc(Br)ccc1Oc1cnc(Cl)cc12` [Example 994, (5S)-7-bromo-3-chlorospiro[chromeno[2,3-c]pyridine-5,4′-[1,3]thiazol]-2′-amine], in assay [1] (setting [3]), the IC50 is ≥ 10 µM.

As to `NC1=N[C@]2(CS1)c1cc(-c3cccnc3F)ccc1Oc1c2cc(-c2ccnc(F)c2)nc1F` [Example 997, (5R)-1-fluoro-7-(2-fluoro-3-pyridinyl)-3-(2-fluoro-4-pyridinyl)spiro[chromeno[2,3-c]pyridine-5,4′-[1,3]thiazol]-2′-amine], the IC50 in assay [1] (setting [3]) is 1.18 µM. For “(4R)-4′-fluoro-2′-methoxy-7′-(5-pyrimidinyl)spiro[1,3-thiazole-4,9′-xanthen]-2-amine [Example 217]”, the IC50 in assay [1] (setting [5]) came to 1.57 µM. Turning to “(4S)-4′-fluoro-7′-(2-fluoro-3-pyridinyl)-2′-(2-oxa-6-azaspiro[3.4]oct-6-yl)spiro[1,3-oxazole-4,9′-xanthen]-2-amine [Example 857]”, the IC50 in assay [2] (setting [7]) was < 0.002 µM. The same measure, in the same setting: the value for “(4S)-4′-fluoro-7′-(2-fluoro-3-pyridinyl)-2′-(6-methoxy-3-pyridinyl)spiro[1,3-oxazole-4,9′-xanthen]-2-amine [Example 224]” was 0.002 µM; that for “(4S)-4′-fluoro-7′-(2-fluoro-3-pyridinyl)-2′-(6-methyl-3-pyridinyl)spiro[1,3-oxazole-4,9′-xanthen]-2-amine [Example 223]” was 0.002 µM.
